The source of these data is patent US11440886B2, “Anti-inflammatory compound, and preparation and use thereof” (E-Nitiate Biopharmaceuticals (Hangzhou) Co., Ltd., priority 2018, dated 2022).

As a reminder, the IC50 is the point on the concentration scale where inhibition reaches its midpoint.

SMILES strings stand for the structures.

Chain of human recombinant PDE4B1 enzyme (Q07343 whole entry): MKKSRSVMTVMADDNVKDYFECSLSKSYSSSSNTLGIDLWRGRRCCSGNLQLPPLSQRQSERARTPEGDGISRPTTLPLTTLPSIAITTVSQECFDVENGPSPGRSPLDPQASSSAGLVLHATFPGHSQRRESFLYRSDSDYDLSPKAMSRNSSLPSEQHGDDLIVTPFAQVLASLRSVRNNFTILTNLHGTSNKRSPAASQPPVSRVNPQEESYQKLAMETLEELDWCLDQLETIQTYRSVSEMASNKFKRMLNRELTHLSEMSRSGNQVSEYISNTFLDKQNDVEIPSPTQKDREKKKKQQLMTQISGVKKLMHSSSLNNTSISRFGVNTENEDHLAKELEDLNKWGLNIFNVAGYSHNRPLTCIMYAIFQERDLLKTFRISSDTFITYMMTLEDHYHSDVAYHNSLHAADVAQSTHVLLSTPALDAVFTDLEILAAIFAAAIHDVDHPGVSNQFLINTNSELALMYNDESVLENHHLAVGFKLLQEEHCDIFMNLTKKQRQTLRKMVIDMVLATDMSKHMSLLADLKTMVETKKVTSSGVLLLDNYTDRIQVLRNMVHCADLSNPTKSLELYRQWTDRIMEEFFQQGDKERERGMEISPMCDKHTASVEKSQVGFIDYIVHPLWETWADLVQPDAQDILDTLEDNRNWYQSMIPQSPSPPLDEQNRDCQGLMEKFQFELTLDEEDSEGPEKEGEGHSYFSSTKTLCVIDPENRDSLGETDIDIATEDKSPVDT

The test has as its target human recombinant PDE4B1 enzyme (Homo sapiens (Human), UniProt Q07343). As to the kind of experiment: Inhibition of PDE4B1 activity by cAMP HTRF assay. The class given is biochemical. To be noted: human recombinant PDE4B1, cAMP 40 nM, pH 7.4. The procedure: Determination of the inhibition of the compounds on PDE4B1 activity by using cAMP HTRF® assay
The inhibitory effect of the compounds on human PDE4B1 enzyme activity was determined by quantifying the 5′-adenosine monophosphate (5′-AMP) formed from 3′,5′-cyclic adenosine monophosphate (cAMP).
The test compound or water (control) and human recombinant PDE4B1 enzyme (4.8 U) were mixed in a buffer solution (pH 7.4) consisting of 1× Hanks' balanced salt solution (HBSS), 5 mM HEPES, 3 mM MgCl2, and 0.1% BSA and incubated for 10 min. A cAMP enzyme substrate (final concentration 40 nM) was added, and the mixture was incubated at room temperature for 60 min. Then a fluorescent acceptor (Dye2 labeled with cAMP), a fluorescent donor (anti-cAMP antibody labeled with europium cryptate) and a non-specific phosphodiesterase inhibitor IBMX (3-isobutyl-1-methyl xanthine; final concentration 1 mM) were added. After 60 min, the fluorescence transfer related to the amount of remaining cAMP was measured on a microplate reader (Rubystar, BMG) at λex=337 nm, λem=620 nm and λem=665 nm. The enzyme activity is calculated from the ratio of the signals measured at 665 nm and 620 nm. The results are expressed as percent inhibition of the enzyme activity of the control (without PDE4 inhibitor). The enzyme was omitted for measurement of the basic control. The IC50 value (IC50=the concentration that caused the half-maximum inhibition of the specific activity of the control) is derived from dose-response measurements with eight different concentrations (n=2; repeated 2 times)
`COc1ccc(/C=C/n2c(C)cc(=O)cc2C)cc1O[C@H]1CC[S+]([O-])C1` (single isomer, unassigned) [Example 83-1]: the IC50 amounted to 550 nM. Then `COc1ccc(/C=C/n2c(C)cc(=O)cc2C)cc1O[C@H]1CC[S+]([O-])C1` (single isomer, unassigned) [Example 83-2], with 106 nM. Then `COc1ccc(/C=C/n2c(C)cc(=O)cc2C)cc1O[C@@H]1CC[S+]([O-])C1` (single isomer, unassigned) [Example 86-1], with 310 nM. `COc1ccc(/C=C/n2c(C)cc(=O)cc2C)cc1O[C@@H]1CC[S+]([O-])C1` (single isomer, unassigned) [Example 86-2]: the half-inhibitory concentration (IC50) came out at 81 nM.

Regarding `Cc1cc(=O)cc(C)n1/C=C/c1ccc(OC(F)F)c(O[C@H]2CC[S+]([O-])C2)c1` (single isomer, unassigned) [Example 98-1], the IC50 worked out at 97 nM. Consider `Cc1cc(=O)cc(C)n1/C=C/c1ccc(OC(F)F)c(O[C@H]2CC[S+]([O-])C2)c1` (single isomer, unassigned) [Example 98-2], for which the half-inhibitory concentration (IC50) was determined as 12.5 nM. Then `Cc1cc(=O)cc(C)n1/C=C/c1ccc(OC(F)F)c(O[C@@H]2CC[S+]([O-])C2)c1` (single isomer, unassigned) [Example 101-1], with 99 nM.

On to `Cc1cc(=O)cc(C)n1/C=C/c1ccc(OC(F)F)c(O[C@@H]2CC[S+]([O-])C2)c1` (single isomer, unassigned) [Example 101-2], for which the 50% inhibitory concentration (IC50) was 26 nM. Then `COc1ccc(C(C#N)=Cn2c(C)cc(=O)cc2C)cc1OCC1CC1` (stereo in doubt) [Example 106, (E)-1-(2-(3-cyclopropylmethoxy-4-methoxyphenyl)-2-cyanoethenyl)-2,6-dimethylpyridin-4(1H)-one], with 2.7 nM; and `COc1ccc(C(O)Cn2c(C)cc(=O)cc2C)cc1OCC1CC1` (stereo not shown) [Example 1, 1-(2-(3-cyclopropylmethoxy-4-methoxyphenyl)-2-hydroxyethyl)-2,6, dimethylpyridin-4(1H)-one], with 760 nM; and `COc1ccc(C(Cn2c(C)cc(=O)cc2C)OC(=O)C2CC2)cc1OCC1CC1` (stereo not shown) [Example 4, (1-(3-cyclopropylmethoxy-4methoxyphenyl)-2-(2,6-dimethyl-4-carbonylpyridin-1(4H)-yl)ethyl) cyclopropylcarboxylate], with 36 nM. Then `C/C=C/C(=O)OC(Cn1c(C)cc(=O)cc1C)c1ccc(OC)c(OCC2CC2)c1` (stereo not shown) [Example 6, (1-(3-cyclopropylmethoxy-4methoxyphenyl)-2-(2,6-dimethyl-4-carbonylpyridin-1(4H)-yl)ethyl) crotonate], with 19 nM. Then `COc1ccc(C(Cn2c(C)cc(=O)cc2C)OC(=O)C=C(C)C)cc1OCC1CC1` (stereo not shown) [Example 7, (1-(3-cyclopropylmethoxy-4methoxyphenyl)-2-(2,6-dimethyl-4-carbonylpyridin-1(4H)-yl)ethyl) 3-methylcrotonate], with 5.7 nM; and `CC#CC(=O)OC(Cn1c(C)cc(=O)cc1C)c1ccc(OC)c(OCC2CC2)c1` (stereo not shown) [Example 8, (1-(3-cyclopropylmethoxy-4methoxyphenyl)-2-(2,6-dimethyl-4-carbonylpyridin-1(4H)-yl)ethyl) but-2-ynoate], with 23 nM. On to `CC#CCOC(Cn1c(C)cc(=O)cc1C)c1ccc(OC)c(OCC2CC2)c1` (stereo not shown) [Example 9, 1-(2-(but-2-yn-1-yloxy)-2-(3-cyclopropylmethoxy-4-methoxyphenyl)ethyl)-2,26-dimethylpyridin-4-(1H)-one], for which the IC50 was determined as 25 nM. Then `COc1ccc(C(=O)Cn2c(C)cc(=O)cc2C)cc1O` [Example 10, 1-(2-(3-hydroxy-4-methoxyphenyl)-2-oxoethyl)-2,6-dimethylpyridin-4(1H)-one], with 3300 nM. Regarding `COc1ccc(C(=O)Cn2c(C)cc(=O)cc2C)cc1OC` [Example 11, 1-(2-(3,4-dimethoxyphenyl)-2-oxoethyl)-2,6-dimethylpyridin-4(1H)-one], the IC50 was 44 nM.

For the molecule `CCCOc1cc(C(=O)Cn2c(C)cc(=O)cc2C)ccc1OC` [Example 13, 1-(2-(3-propoxy-4-methoxyphenyl)-2-oxoethyl)-2,6-dimethylpyridin-4(1H)-one], the IC50 came to 4.9 nM. Then `COc1ccc(C(=O)Cn2c(C)cc(=O)cc2C)cc1OC(C)C` [Example 14, 1-(2-(3-isopropoxy-4-methoxyphenyl)-2-oxoethyl)-2,6-dimethylpyridin-4(1H)-one], with 21 nM; and `CCCCOc1cc(C(=O)Cn2c(C)cc(=O)cc2C)ccc1OC` [Example 15, 1-(2(3-n-butoxy-4-methoxyphenyl)-2-oxoethyl)-2,6-dimethylpyridin-4(1H)-one], with 33 nM. Then `COc1ccc(C(=O)Cn2c(C)cc(=O)cc2C)cc1OCC(C)C` [Example 16, 1-(2-(3-iso-butoxy-4-methoxyphenyl)-2-oxoethyl)-2,6-dimethylpyridin-4(1H)-one], with 10.3 nM; and `CCCCCOc1cc(C(=O)Cn2c(C)cc(=O)cc2C)ccc1OC` [Example 17, 1-(2-(3-n-pentyloxy-4-methoxyphenyl)-2-oxoethyl)-2,6-dimethylpyridin-4(1H)-one], with 16 nM. With `CCCCCCOc1cc(C(=O)Cn2c(C)cc(=O)cc2C)ccc1OC` [Example 18, 1-(2-(3-n-hexyloxy-4-methoxyphenyl)-2-oxoethyl)-2,6-dimethylpyridin-4(1H)-one], the IC50 is 4.5 nM. Then `COc1ccc(C(=O)Cn2c(C)cc(=O)cc2C)cc1OC1CC1` [Example 19, 1-(2-(3-cyclopropyloxy-4-methoxyphenyl)-2-oxoethyl)-2,6-dimethylpyridin-4(1H)-one], with 4.6 nM. On to `COc1ccc(C(=O)Cn2c(C)cc(=O)cc2C)cc1OCC1CC1` [Example 20, 1-(2-(3-cyclopropylmethoxy-4-methoxyphenyl)-2-oxo)ethyl-2,6-dimethylpyridin-4(1H)-one], for which the IC50 turned out to be 13 nM. Regarding `COc1ccc(C(=O)Cn2c(C)cc(=O)cc2C)cc1OC1CCC1` [Example 21, 1-(2-(3-cyclobutyloxy-4-methoxyphenyl)-2-oxoethyl)-2,6-dimethylpyridin-4(1H)-one], the IC50 came out at 4.6 nM. As to `COc1ccc(C(=O)Cn2c(C)cc(=O)cc2C)cc1OCC1CCC1` [Example 22, 1-(2-(3-cyclobutylmethoxy-4-methoxyphenyl)-2-oxo)ethyl-2,6-dimethylpyridin-4(1H)-one], the IC50 is 20 nM. With `COc1ccc(C(=O)Cn2c(C)cc(=O)cc2C)cc1OC1CCCC1` [Example 23, 1-(2-(3-cyclopentyloxy-4-methoxyphenyl)-2-oxoethyl)-2,6-dimethylpyridin-4(1H)-one], the concentration for half-maximal inhibition (IC50) was 5 nM. Then `COc1ccc(C(=O)Cn2c(C)cc(=O)cc2C)cc1OC1CCCCC1` [Example 24, 1-(2-(3-cyclohexyloxy-4-methoxyphenyl)-2-oxoethyl)-2,6-dimethylpyridin-4(1H)-one], with 23 nM; and `COc1ccc(C(=O)Cn2c(C)cc(=O)cc2C)cc1OC1CC=CC1` [Example 25, 1-(2-(3-(cyclopent-3-en-1-yloxy)-4-methoxyphenyl)-2-oxoethyl)-2,6-dimethylpyridin-4(1H)-one], with 11.5 nM. Regarding `C=CCOc1cc(C(=O)Cn2c(C)cc(=O)cc2C)ccc1OC` [Example 26, 1-(2-(3-allyloxy-4-methoxyphenyl)-2-oxoethyl)-2,6-dimethylpyridin-4(1H)-one], the half-inhibitory concentration (IC50) came out at 39 nM.
